Test results as given in patent US7482374B2, “Pyrrolidine-2-ones as Factor Xa inhibitors” (Glaxo Group Limited, priority 2003, dated 2009).
Where a name gives a salt, the structure may show the parent alone.

Each compound was assayed against T1, human Factor Xa (Homo sapiens, UniProt P00742) (assay: In vitro assay for inhibition of Factor Xa (fluorogenic assay, Rhodamine 110 bis-CBZ-glycylglycyl-L-arginine amide substrate)). Conditions: Ki = IC50/1.6; 15 min preincubation, substrate 10 μM, room temperature, pH 7.4.
T1 construct: containing human Factor Xa (final conc. Of 0.0003 U·ml−1)
Type: biochemical
Protocol: In Vitro Assay for Inhibition of Factor Xa
Compounds of the present invention were tested for their Factor Xa inhibitory activity as determined in vitro by their ability to inhibit human Factor Xa in a fluorogenic assay, using Rhodamine 110, bis-CBZ-glycylglycyl-L-arginine amide as the fluorogenic substrate. Compounds were diluted from a 10 mM stock solution in dimethylsulfoxide at appropriate concentrations. Assay was performed at room temperature using buffer consisting of: 50 mM Tris-HCl, 150 mM NaCl, 5 mM CaCl2, pH 7.4. containing human Factor Xa (final conc. Of 0.0003 U·ml−1). Compound and enzyme were preincubated for 15 min prior to addition of the substrate (final conc. of 10 μM). The reaction was stopped after 3 hrs with the addition of H-D-Phe-Pro-Arg-Chloromethylketone. An LJL-Analyst fluorimeter was used to monitor fluorescence with 485 nm excitation/535 nm emission. To obtain IC50 values the data were analysed using ActivityBase® and XLfit®.
Calculation of Ki Values: Ki=IC50/(1+[Substrate]/Km)
The Ki value for the above assay can be obtained by dividing the IC50 value by 1.6.

T1 sequence (P00742 235-488 limits assumed): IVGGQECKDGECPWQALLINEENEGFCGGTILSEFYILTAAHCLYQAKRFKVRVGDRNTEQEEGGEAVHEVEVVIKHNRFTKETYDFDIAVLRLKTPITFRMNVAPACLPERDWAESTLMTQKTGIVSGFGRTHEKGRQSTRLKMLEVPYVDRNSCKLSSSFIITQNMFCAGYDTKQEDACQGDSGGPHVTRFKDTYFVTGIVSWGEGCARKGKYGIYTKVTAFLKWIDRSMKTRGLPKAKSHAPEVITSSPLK
T1 sequence (P00742 41-179 partner limits assumed): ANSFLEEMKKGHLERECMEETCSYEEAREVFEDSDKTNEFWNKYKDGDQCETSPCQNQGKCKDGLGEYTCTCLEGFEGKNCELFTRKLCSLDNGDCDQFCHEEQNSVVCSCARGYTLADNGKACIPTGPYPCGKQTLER

| SMILES | Ki [nM] |
| --- | --- |
| C/C(=C\S(=O)(=O)NC1CCN(c2ccc(-n3ccnc3CN3CCC3)cc2F)C1=O)c1ccc(Cl)s1 (centres unmarked) [Example 1, (1E)-N-(1-{4-[2-(1-Azetidinylmethyl)-1H-imidazol-1-yl]-2-fluorophenyl}-2-oxo-3-pyrrolidinyl)-2-(5-chloro-thienyl)-1-propene-1-sulfonamide formate] | < 10 |
| C/C(=C\S(=O)(=O)NC1CCN(c2ccc(-n3ccnc3CN3CCC(F)C3)cc2F)C1=O)c1ccc(Cl)s1 (centres unmarked) [Example 5, (1E)-2-(5-Chloro-2-thienyl)-N-[1-(2-fluoro-4-{2-[(3-fluoro-1-pyrrolidinyl)methyl]-1H-imidazol-1-yl}phenyl)-2-oxo-3-pyrrolidinyl]-1-propene-1-sulfonamide formate] | < 10 |
| O=C1C(NS(=O)(=O)c2cc3ccc(Cl)cc3s2)CCN1c1ccc(-n2ccnc2CN2CCC(F)C2)cc1F (centres unmarked) [Example 6, 6-Chloro-N-[1-(2-fluoro-4-{2-[(3-fluoro-1-pyrrolidinyl)methyl]-1H-imidazol-1-yl}phenyl)-2-oxo-3-pyrrolidinyl]-1-benzothiophene-2-sulfonamide formate] | < 10 |
| O=C1C(NS(=O)(=O)CCc2ccc(Cl)s2)CCN1c1ccc(-n2ccnc2CN2CCC2)cc1F (centres unmarked) [Example 2, N-(1-{4-[2-(1-Azetidinylmethyl)-1H-imidazol-1-yl]-2-fluorophenyl}-2-oxo-3-pyrrolidinyl)-2-(5-chloro-2-thienyl)ethanesulfonamide formate] | < 10 |
| COC1CN(Cc2nccn2-c2ccc(N3CCC(NS(=O)(=O)c4cc5ccc(Cl)cc5s4)C3=O)c(F)c2)C1 (centres unmarked) [Example 7, 6-Chloro-N-{1-[2-fluoro-4-(2-{[3-(methyloxy)-1-azetidinyl]methyl}-1H-imidazol-1-yl)phenyl]-2-oxo-3-pyrrolidinyl}-1-benzothiophene-2-sulfonamide formate] | < 10 |
